Source: article PMC6854942, “Simultaneous Determination of Three Bioactive Constituents from Bletilla striata by UPLC-MS/MS and Application of the Technique to Pharmacokinetic Analyses” (Evidence-based Complementary and Alternative Medicine : eCAM, 2019)
“And” between values parts separate entries of the source, which are not always exact repeats. Equal entries are not always repeated.

Experiments:
[1] = Pharmacokinetic study in rats after oral administration of B. striata extract (UPLC-MS/MS of plasma); format: in vivo, Sprague-Dawley rats; conditions: for bioavailability: rats, AUC0−t oral (22.2 g/kg extract) vs i.v. (1.64 g/kg extract), dose-corrected, read-out: Bioavailability (absolute); for MRT last: read-out: MRT0–t; for MRT inf: read-out: MRT0–∞
Method: (§1) An ACQUITY™ UPLC system (Waters Corp., Milford, MA, USA) with a conditioned autosampler and the ACQUITY™ UPLC BEH C18 analytical column (50 mm × 2.1 mm, internal diameter, 1.7 μm; Waters Corp., Milford, MA, USA) were used, to which a 6 mm precolumn filter unit was added. Analysis was carried out with an elution gradient of (A) acetonitrile and (B) water (both containing 0.1% formic acid) at a flow rate of 0.35 mL/min as follows: 0–0.5 min (10% A), 0.5–1.0 min (10–30% A), 1.0–2.0 min (30–35% A), 2.0–3.0 min (35–38% A), 3.0–4.0 min (38–90% A), and 4.0–5.0 min (90–10% A). The column and autosampler were maintained at 45°C and 15°C, respectively. The injection volume was 2 μL.
(§2) Mass spectrometric detection was performed using a Waters ACQUITY™ TQD triple quadrupole tandem mass spectrometer (Waters Corp., Manchester, UK) with an ESI interface in the positive ionization mode. The MS conditions were as follows: capillary voltage, 3.0 kV; desolvation gas flow, 650 L/h of nitrogen; and cone gas flow, 50 L/h of nitrogen. The collision gas (Ar) flow for MS/MS was maintained at 0.16 mL/min for collision-induced dissociation (CID). The source and desolvation gas temperatures were 120°C and 350°C, respectively. The multiple reaction monitoring (MRM) mode was used for quantification. All data were acquired using Masslynx™ V 4.1 Software and processed using Quanlyna™ V4.1 (Waters Corp., Millford, MA, USA).
(§3) Ten microliters of the IS solution (puerarin, 10 μg/mL in methanol) and 50 μL of 1% formic acid were added to 100 μL of rat plasma. Proteins were precipitated by addition of 400 μL of methanol, vortexing for 1 min, sonication for 5 min, followed by centrifugation at 13225 ×g for 10 min at 4°C, collecting the supernatant in a centrifuge tube, and drying at 37°C N2. Subsequently, 300 μL of the initial mobile phase was dissolved, sonicated for 5 min, and centrifuged at 5°C and 13225 ×g for 5 min, and the supernatant was used for analysis by UPLC-MS/MS.
(§4) The twelve Sprague-Dawley rats were housed under a controlled temperature regimen (22 ± 1°C) and relative humidity of 50–70%. The animals were maintained on a 12 h light/12 h dark cycle and had free access to food and water. They were fasted for 12 h before each experiment but allowed to drink freely during this time. Before the experiment, the B. striata extracts' intravenous and oral dosing solutions were prepared in physiological saline at concentrations of 1.03 g/mL and 2.78 g/mL, respectively. The 12 rats were randomly divided into two groups with 6 rats in each group. Group 1 underwent oral administration (22.2 g/kg), and group 2 underwent intravenous administration (1.64 g/kg). Blood samples (0.3 mL) were collected from the external right jugular veins of the rats into heparinized tubes at the designated time points (0.033, 0.083, 0.167, 0.33, 0.5, 1, 1.5, 2, 10, 24, 36, and 48 h for group 1 and 0.033, 0.083, 0.167, 0.25, 0.33, 0.5, 0.75, 1, 1.6, and 2 h for group 2). The blood samples were immediately centrifuged at 3000 ×g for 5 min. The plasma was removed and frozen at −20°C until further analysis.
(§5) Data are represented as mean± standard deviation. To determine the pharmacokinetic parameters, the concentration-time data were analyzed by DAS 2.0 software (Mathematical Pharmacology Professional Committee of China, Shanghai, China). Statistical analysis was performed using the statistical software package Statistical Product and Service Solutions (SPSS 11.5, USA). The absolute bioavailability was calculated using the following equation: F (%) = [AUC0 − t (oral) × dose (i.v.)]/[AUC0 − t (i.v.) × dose (oral)]) × 100.

[2] = Stability of each compound in rat plasma (QC samples); format: in vitro ADME; conditions: n = 5
Method: The stability of each compound in rat plasma was evaluated using mixtures containing low, medium, or high concentrations of the QC sample (n = 5 for each concentration level). The stability of each compound was tested under three conditions: room temperature for 6 h, three freeze (−20°C)-thaw (room temperature) cycles, and storage at 4°C for 12 h.

[3] = Pharmacokinetic study in rats after intravenous administration of B. striata extract (UPLC-MS/MS of plasma); format: in vivo, Sprague-Dawley rats; conditions: intravenous administration of B. striata extract 1.64 g/kg, rat plasma, n = 6; for MRT last / MRT inf: Sprague-Dawley; for MRT last: read-out: MRT0–t; for MRT inf: read-out: MRT0–∞
Method: as §1, §2, §3, §4, §5

[4] = Sprague-Dawley, oral administration of B. striata extract 22.2 g/kg, rat plasma, n = 6
[5] = oral administration of B. striata extract 22.2 g/kg, rat plasma, n = 6
[6] = 3 freeze-thaw cycles (−20°C / room temperature), low QC (spiked 0.029 / 0.022 / 0.015 μg/mL)
[7] = 3 freeze-thaw cycles, high QC (spiked 36.78 / 13.75 / 23.78 μg/mL)
[8] = 3 freeze-thaw cycles, medium QC (spiked 4.09 / 2.75 / 2.64 μg/mL)
[9] = 6 h, room temperature, high QC (spiked 36.78 / 13.75 / 23.78 μg/mL)
[10] = 6 h, room temperature, low QC (spiked 0.029 / 0.022 / 0.015 μg/mL)
[11] = 6 h, room temperature, medium QC (spiked 4.09 / 2.75 / 2.64 μg/mL)
[12] = 12 h, 4°C, high QC (spiked 36.78 / 13.75 / 23.78 μg/mL)
[13] = 12 h, 4°C, low QC (spiked 0.029 / 0.022 / 0.015 μg/mL)
[14] = 12 h, 4°C, medium QC (spiked 4.09 / 2.75 / 2.64 μg/mL)

bioavailability ([1]; Sprague-Dawley, rat, plasma)	Cmax [1, 4] [µg/mL]	MRT last [1, 4] [h]	MRT inf [1, 4] [h]	AUC0–t [1, 5] [h∗μg/mL]	AUC0–∞ [1, 5] [h∗μg/mL]	Accuracy [2, 6] [%]	Calculated concentration [2, 6] [µg/mL]	Calculated concentration [2, 7] [µg/mL]	Calculated concentration [2, 8] [µg/mL]	Calculated concentration [2, 9] [µg/mL]	Accuracy [2, 10] [%]	Calculated concentration [2, 10] [µg/mL]	Calculated concentration [2, 11] [µg/mL]	Accuracy [2, 12] [%]	Calculated concentration [2, 12] [µg/mL]	Accuracy [2, 13] [%]	Calculated concentration [2, 13] [µg/mL]	Accuracy [2, 14] [%]	Calculated concentration [2, 14] [µg/mL]	other results	Compound
9.8%	3.06 ± 4.82	12.4 ± 3.73	16 ± 5.34	20.56 ± 12.05	21.81 ± 12.04	100.3	0.022 ± 0.001	13.92 ± 0.57	2.74 ± 0.10	13.69 ± 0.39	100.2	0.022 ± 0.001	2.77 ± 0.08	96.1	13.22 ± 0.49	95.4	0.021 ± 0.001	97.5	2.68 ± 0.15	T max [1, 5]: 1.44 ± 2.29 h; T max ([1]; oral administration of B. striata extract 22.2 g/kg, rat plasma, n = 6, listed as gymnoside I): 0.16 h; MRT last [3]: 0.68 ± 0.07 h; MRT inf [3]: 0.93 ± 0.18 h; AUC0–t [3]: 15.47 ± 1.63 h∗μg/mL; AUC0–∞ [3]: 17.52 ± 2.66 h∗μg/mL	CC(C)C[C@@](O)(CC(=O)O)C(=O)OCc1ccc(O[C@@H]2O[C@H](CO)[C@@H](O)[C@H](O)[C@H]2O)cc1 [Gymnoside I, gymnoside I]
87.5% and 87.4%	23.2 ± 5.42	15.6 ± 3.63	19.7 ± 6.25	458.12 ± 150.74	498.36 ± 173.09	93.1	0.027 ± 0.001	34.17 ± 1.28	3.83 ± 0.08	34.95 ± 1.89	103.4	0.03 ± 0.001	3.77 ± 0.09	94.4	34.71 ± 1.95	96.6	0.028 ± 0.002	95.8	3.92 ± 0.11	Tmax ([1]; Sprague-Dawley, rat, plasma, po, 22.2 g/kg, oral administration of B. striata extract 22.2 g/kg, rat plasma, n = 6): 6.44 ± 2.33 h; Accuracy [2, 7]: 92.9%; Accuracy [2, 8]: 93.6%; Accuracy [2, 9]: 95.0%; Accuracy [2, 11]: 92.2%; MRT last [3]: 0.45 ± 0.08 h; MRT inf [3]: 0.51 ± 0.1 h; AUC0–t [3]: 38.7 ± 4.72 h∗μg/mL; AUC0–∞ [3]: 39.62 ± 4.26 h∗μg/mL	CC(C)C[C@@](O)(CC(=O)O)C(=O)O [α-Isobutylmalic acid]
0.6%	3.3 ± 3.6	5.62 ± 2.45	9.31 ± 2.57	3.10 ± 1.16	4.26 ± 1.93	100.7	0.015 ± 0.001	21.8 ± 0.94	2.62 ± 0.09	21.3 ± 0.94	106.7	0.016 ± 0.001	2.62 ± 0.09	92.3	21.95 ± 1.1	100.1	0.015 ± 0.001	93.2	2.46 ± 0.28	T max [1, 5]: 0.16 ± 0.11 h; T max ([1]; oral administration of B. striata extract 22.2 g/kg, rat plasma, n = 6, listed as militarine): 1.44 h; Accuracy [2, 7]: 91.7%; Accuracy [2, 8]: 99.2%; Accuracy [2, 9]: 89.6%; Accuracy [2, 11]: 99.2%; MRT last [3]: 0.36 ± 0.06 h; MRT inf [3]: 0.39 ± 0.07 h; AUC0–t [3]: 36.71 ± 5.66 h∗μg/mL; AUC0–∞ [3]: 37.22 ± 5.99 h∗μg/mL	CC(C)C[C@@](O)(CC(=O)OCc1ccc(O[C@@H]2O[C@H](CO)[C@@H](O)[C@H](O)[C@H]2O)cc1)C(=O)OCc1ccc(O[C@@H]2O[C@H](CO)[C@@H](O)[C@H](O)[C@H]2O)cc1 [Militarine, militarine]
